Here are results for 25 compounds from US8530489B2 (Vertex Pharmaceuticals Incorporated, priority 2006, dated 2013).

Structures are written as SMILES. pKi: −log10 of the molar value.

PLK1, sequence (P53350 whole entry): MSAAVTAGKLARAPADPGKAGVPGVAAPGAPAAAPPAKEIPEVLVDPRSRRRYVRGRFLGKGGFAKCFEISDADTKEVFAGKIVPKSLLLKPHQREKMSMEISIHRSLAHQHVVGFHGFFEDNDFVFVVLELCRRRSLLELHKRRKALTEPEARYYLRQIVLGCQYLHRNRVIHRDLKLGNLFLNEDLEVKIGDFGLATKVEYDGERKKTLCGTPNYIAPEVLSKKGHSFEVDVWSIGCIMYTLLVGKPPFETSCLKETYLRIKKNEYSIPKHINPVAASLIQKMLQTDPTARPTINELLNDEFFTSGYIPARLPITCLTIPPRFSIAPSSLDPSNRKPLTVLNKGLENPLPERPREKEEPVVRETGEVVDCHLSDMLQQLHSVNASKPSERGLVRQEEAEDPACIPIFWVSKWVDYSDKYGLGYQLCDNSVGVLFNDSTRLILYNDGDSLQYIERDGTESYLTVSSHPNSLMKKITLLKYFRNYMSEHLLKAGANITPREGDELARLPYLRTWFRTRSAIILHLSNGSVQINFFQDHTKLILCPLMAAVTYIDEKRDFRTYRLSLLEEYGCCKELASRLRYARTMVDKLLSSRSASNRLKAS

This test addresses PLK1 (Homo sapiens, UniProt P53350). In words: PLK1 Inhibition Assay I (radioactive-phosphate incorporation). In kind it is biochemical. The settings on record: Ki(app); PLK1 Inhibition Assay I or II (table does not say which). The method, then:
The compounds of the present invention are evaluated as inhibitors of human PLK kinase using the following assays.
Compounds were screened for their ability to inhibit PLK1 using a radioactive-phosphate incorporation assay. Assays were carried out in a mixture of 25 mM HEPES (pH 7.5), 10 mM MgCl2, and 1 mM DTT. Final substrate concentrations were 350 μM [γ-33P]ATP (136 mCi 33P ATP/mmol ATP, Amersham Pharmacia Biotech/Sigma Chemicals) and 450 μM peptide (KKKISDELMDATFADQEAK) [SEQ. ID:1]. Assays were carried out at 25° C. in the presence of 2 nM PLK1. An assay stock buffer solution was prepared containing all of the reagents listed above, with the exception of ATP and the test compound of interest. 30 μL of the stock solution was placed in a 96 well plate followed by addition of 2 μL of DMSO stock containing serial dilutions of the test compound (typically starting from a final concentration of 10 μM with 2-fold serial dilutions) in duplicate (final DMSO concentration 5%). The plate was pre-incubated for 10 minutes at 25° C. and the reaction initiated by addition of 8 μL [γ-33P]ATP (final concentration 350 μM).
The reaction was stopped after 240 minutes by the addition of 100 μL 0.14M phosphoric acid. A multiscreen phosphocellulose filter 96-well plate (Millipore, Cat No. MAPHN0B50) was pretreated with 100 μL 0.1 M phosphoric acid prior to the addition of 125 μL of the stopped assay mixture. The plate was washed with 4×200 μL 0.1 M phosphoric acid. After drying, 100 μL Optiphase ‘SuperMix’ liquid scintillation cocktail (Perkin Elmer) was added to the well prior to scintillation counting (1450 Microbeta Liquid Scintillation Counter, Wallac).
After removing mean background values for all of the data points, Ki(app) data were calculated from non-linear regression analysis of the initial rate data using the Prism software package (GraphPad Prism version 3.0cx for Macintosh, GraphPad Software, San Diego Calif., USA).
On to `N#Cc1cnc(Sc2ccc(Br)cc2)nc1-c1c[nH]c2ncc(C(F)(F)F)cc12` [II-8, 2-(4-bromophenylthio)-4-(5-(trifluoromethyl)-1H-pyrrolo[2,3-b]pyridin-3-yl)pyrimidine-5-carbonitrile], for which the negative logarithm of the Ki (pKi) (commonly the negative decadic logarithm of the Ki, by convention in mol/L) was below 7.40.

Consider `CC(Nc1ncc(C#N)c(-c2c[nH]c3ncc(C(F)(F)F)cc23)n1)c1ccc(O[C@@H]2CCN(C)C2)nc1` (stereo partly drawn) [Compound I-271, 2-(1-(6-((R)-1-methylpyrrolidin-3-yloxy)pyridin-3-yl)ethylamino)-4-(5-(trifluoromethyl)-1H-pyrrolo[2,3-b]pyridin-3-yl)pyrimidine-5-carbonitrile], for which the negative-log Ki (pKi) was 7.40 to 8.52.

In the case of `C[C@@H](Nc1ncc(C#N)c(-c2c[nH]c3ncc(C(F)(F)F)cc23)n1)C1CCN(C(=O)[C@H]2C[C@H](O)CN2)CC1` [Compound I-263, 2-((R)-1-(1-((2R,4S)-4-hydroxypyrrolidine-2-carbonyl)piperidin-4-yl)ethylamino)-4-(5-(trifluoromethyl)-1H-pyrrolo[2,3-b]pyridin-3-yl)pyrimidine-5-carbonitrile], the pKi was above 8.52.

With `C[C@@H](Nc1ncc(C#N)c(-c2c[nH]c3ncc(C(F)(F)F)cc23)n1)c1ccc(NC2CCN(C)CC2)nc1` [Compound I-297, 2-((R)-1-(6-(1-methylpiperidin-4-ylamino)pyridin-3-yl)ethylamino)-4-(5-(trifluoromethyl)-1H-pyrrolo[2,3-b]pyridin-3-yl)pyrimidine-5-carbonitrile], the negative-log Ki (pKi) was above 8.52.

On to `CNC(=O)c1ccc([C@@H](C)Nc2ncc(C#N)c(-c3c[nH]c4ncc(C(F)(F)F)cc34)n2)cc1` [Compound I-163, 4-((1R)-1-(5-cyano-4-(5-(trifluoromethyl)-1H-pyrrolo[2,3-b]pyridin-3-yl)pyrimidin-2-ylamino)ethyl)-N-methylbenzamide], for which the pKi was above 8.52.

`CCN(Cc1ccccc1)c1ncc(C#N)c(-c2c[nH]c3ncc(C(F)(F)F)cc23)n1` [Compound I-11, 2-(benzyl(ethyl)amino)-4-(5-(trifluoromethyl)-1H-pyrrolo[2,3-b]pyridin-3-yl)pyrimidine-5-carbonitrile]: the pKi was below 7.40.

Turning to `C[C@@H](Nc1ncc(C#N)c(-c2c[nH]c3ncc(C(F)(F)F)cc23)n1)C1CCN(C(=O)[C@H](N)CO)CC1` [Compound I-240, 2-((R)-1-(1-((R)-2-amino-3-hydroxypropanoyl)piperidin-4-yl)ethylamino)-4-(5-(trifluoromethyl)-1H-pyrrolo[2,3-b]pyridin-3-yl)pyrimidine-5-carbonitrile], the pKi was above 8.52.

Consider `C[C@@H](O)C(=O)N1CCC([C@@H](C)Nc2ncc(C#N)c(-c3c[nH]c4ncc(C(F)(F)F)cc34)n2)CC1` [Compound I-207, 2-((R)-1-(1-((R)-2-hydroxypropanoyl)piperidin-4-yl)ethylamino)-4-(5-(trifluoromethyl)-1H-pyrrolo[2,3-b]pyridin-3-yl)pyrimidine-5-carbonitrile], for which the pKi was above 8.52.

Consider `C[C@@H](Nc1ncc(C#N)c(-c2c[nH]c3ncc(C(F)(F)F)cc23)n1)C1CCN(C(=O)CO)CC1` [Compound I-205, 2-((R)-1-(1-(2-hydroxyacetyl)piperidin-4-yl)ethylamino)-4-(5-(trifluoromethyl)-1H-pyrrolo[2,3-b]pyridin-3-yl)pyrimidine-5-carbonitrile], for which the negative-log Ki (pKi) was above 8.52.

For `COCC(=O)N1CCC(C(C)Nc2ncc(C#N)c(-c3c[nH]c4ncc(C(F)(F)F)cc34)n2)CC1` (stereo not shown) [Compound I-183, 2-(1-(1-(2-methoxyacetyl)piperidin-4-yl)ethylamino)-4-(5-(trifluoromethyl)-1H-pyrrolo[2,3-b]pyridin-3-yl)pyrimidine-5-carbonitrile], the pKi is above 8.52.

Take `CC(C)NC(=O)c1ccc([C@@H](C)Nc2ncc(C#N)c(-c3c[nH]c4ncc(C(F)(F)F)cc34)n2)cc1` [Compound I-172, 4-((1R)-1-(5-cyano-4-(5-(trifluoromethyl)-1H-pyrrolo[2,3-b]pyridin-3-yl)pyrimidin-2-ylamino)ethyl)-N-isopropylbenzamide]: the pKi is 7.40 to 8.52.

Take `N#Cc1cnc(Sc2ccccc2Br)nc1-c1c[nH]c2ncc(C(F)(F)F)cc12` [II-7, 2-(2-bromophenylthio)-4-(5-(trifluoromethyl)-1H-pyrrolo[2,3-b]pyridin-3-yl)pyrimidine-5-carbonitrile]: the negative-log Ki (pKi) was below 7.40.

`C[C@@H](Nc1ncc(C#N)c(-c2c[nH]c3ncc(C(F)(F)F)cc23)n1)c1ccc(N(C)C)cc1` [Compound I-133, 2-((R)-1-(4-(dimethylamino)phenyl)ethylamino)-4-(5-(trifluoromethyl)-1H-pyrrolo[2,3-b]pyridin-3-yl)pyrimidine-5-carbonitrile]: the pKi is above 8.52.

On to `C[C@@H](Nc1ncc(C#N)c(-c2c[nH]c3ncc(C(F)(F)F)cc23)n1)c1ccc(N2CCC(N(C)C)CC2)nc1` [Compound I-294, 2-((R)-1-(6-(4-(dimethylamino)piperidin-1-yl)pyridin-3-yl)ethylamino)-4-(5-(trifluoromethyl)-1H-pyrrolo[2,3-b]pyridin-3-yl)pyrimidine-5-carbonitrile], for which the negative-log Ki (pKi) is 7.40 to 8.52.

As to `N#Cc1cnc(NC(CCO)C2CC2)nc1-c1c[nH]c2ncc(C(F)(F)F)cc12` (stereo not shown) [Compound I-106, 2-(1-cyclopropyl-3-hydroxypropylamino)-4-(5-(trifluoromethyl)-1H-pyrrolo[2,3-b]pyridin-3-yl)pyrimidine-5-carbonitrile], the pKi is 7.40 to 8.52.

Regarding `Cc1cnc2[nH]cc(-c3nc(N[C@@H](CO)C(C)C)ncc3C#N)c2c1` [EG8, 2-((R)-1-hydroxy-3-methylbutan-2-ylamino)-4-(5-methyl-1H-pyrrolo[2,3-b]pyridin-3-yl)pyrimidine-5-carbonitrile], the pKi was 7.40 to 8.52.

In the case of `C[C@@H](Nc1ncc(C#N)c(-c2c[nH]c3ncc(C(F)(F)F)cc23)n1)C1CCN(C(=O)[C@@H](N)CCCN)CC1` [Compound I-254, 2-((R)-1-(1-((S)-2,5-diaminopentanoyl)piperidin-4-yl)ethylamino)-4-(5-(trifluoromethyl)-1H-pyrrolo[2,3-b]pyridin-3-yl)pyrimidine-5-carbonitrile], the pKi was above 8.52.

As to `C[C@@H](Nc1ncc(C#N)c(-c2c[nH]c3ncc(C(F)(F)F)cc23)n1)[C@H]1CC[C@H](NC(=O)CO)CC1` [Compound I-211, N-((1R,4r)-4-((1R)-1-(5-cyano-4-(5-(trifluoromethyl)-1H-pyrrolo[2,3-b]pyridin-3-yl)pyrimidin-2-ylamino)ethyl)cyclohexyl)-2-hydroxyacetamide], the pKi is above 8.52.

In the case of `C[C@@H](Nc1ncc(C#N)c(-c2c[nH]c3ncc(C(F)(F)F)cc23)n1)C1CCN(C(=O)[C@H]2CCN2)CC1` [Compound I-259, 2-((R)-1-(1-((R)-azetidine-2-carbonyl)piperidin-4-yl)ethylamino)-4-(5-(trifluoromethyl)-1H-pyrrolo[2,3-b]pyridin-3-yl)pyrimidine-5-carbonitrile], the negative-log Ki (pKi) was above 8.52.

Regarding `C[C@@H](Nc1ncc(C#N)c(-c2c[nH]c3ncc(C(F)(F)F)cc23)n1)[C@H]1CC[C@@H](NC(=O)CO)CC1` [Compound I-212, N-((1S,4s)-4-((1R)-1-(5-cyano-4-(5-(trifluoromethyl)-1H-pyrrolo[2,3-b]pyridin-3-yl)pyrimidin-2-ylamino)ethyl)cyclohexyl)-2-hydroxyacetamide], the pKi is above 8.52.

As to `N#Cc1cnc(NCC2(O)CCCCC2)nc1-c1c[nH]c2ncc(C(F)(F)F)cc12` [Compound I-49, 2-((1-hydroxycyclohexyl)methylamino)-4-(5-(trifluoromethyl)-1H-pyrrolo[2,3-b]pyridin-3-yl)pyrimidine-5-carbonitrile], the negative logarithm of the Ki (pKi) was 7.40 to 8.52.

On to `N#Cc1cnc(NC2(C(=O)NCC(F)(F)F)CCCC2)nc1-c1c[nH]c2ncc(Cl)cc12` [IA-7, 1-(4-(5-chloro-1H-pyrrolo[2,3-b]pyridin-3-yl)-5-cyanopyrimidin-2-ylamino)-N-(2,2,2-trifluoroethyl)cyclopentanecarboxamide], for which the pKi is below 7.40.

For the compound `CC(=O)Nc1ccc(C(C)Nc2ncc(C#N)c(-c3c[nH]c4ncc(C(F)(F)F)cc34)n2)cc1` (stereo not shown) [Compound I-121, N-(4-(1-(5-cyano-4-(5-(trifluoromethyl)-1H-pyrrolo[2,3-b]pyridin-3-yl)pyrimidin-2-ylamino)ethyl)phenyl)acetamide], the pKi is above 8.52.

For `CC(Nc1ncc(C#N)c(-c2c[nH]c3ncc(C(F)(F)F)cc23)n1)C1CCN(C(=O)CO)CC1` (stereo not shown) [Compound I-192, 2-(1-(1-(2-hydroxyacetyl)piperidin-4-yl)ethylamino)-4-(5-(trifluoromethyl)-1H-pyrrolo[2,3-b]pyridin-3-yl)pyrimidine-5-carbonitrile], the pKi is above 8.52.

As to `C[C@@H](Nc1ncc(C#N)c(-c2c[nH]c3ncc(C(F)(F)F)cc23)n1)c1ccc(NS(=O)(=O)C2CC2)cc1` [Compound I-168, N-(4-((1R)-1-(5-cyano-4-(5-(trifluoromethyl)-1H-pyrrolo[2,3-b]pyridin-3-yl)pyrimidin-2-ylamino)ethyl)phenyl)cyclopropanesulfonamide], the pKi is above 8.52.
